Where two headings read alike, the source gives them in different places.
How the values were obtained:
[1] = target: T1, specific receptor on the membrane of human neutrophils (leukotriene B4) (Homo sapiens, UniProt Q15722); assay: Inhibition of Binding of ^3 H-LTB4 to Peripheral Human Neutrophils; conditions: for inhibition at 10 µM / inhibition at 1 µM / inhibition at 0.1 µM: read-out: LTB4 Binding Inhibition; for inhibition at 0.1 µM: drug concentration 10^-7 M
T1 construct: Freshly-prepared buffy coat layers from two individuals were obtained from a local blood donor center; endogenous in cells; host or cells: intact human peripheral blood neutrophils from buffy coats of two donors
T1 sequence (Q15722 whole entry): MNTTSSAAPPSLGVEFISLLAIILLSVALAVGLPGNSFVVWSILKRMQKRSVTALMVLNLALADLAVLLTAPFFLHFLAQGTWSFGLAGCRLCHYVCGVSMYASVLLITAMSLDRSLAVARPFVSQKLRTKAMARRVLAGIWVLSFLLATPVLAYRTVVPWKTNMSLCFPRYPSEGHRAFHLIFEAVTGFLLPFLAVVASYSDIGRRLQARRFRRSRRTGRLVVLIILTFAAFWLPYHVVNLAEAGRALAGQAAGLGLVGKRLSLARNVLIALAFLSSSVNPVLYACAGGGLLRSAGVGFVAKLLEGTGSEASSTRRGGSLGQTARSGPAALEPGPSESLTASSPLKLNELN
Protocol: Cells used in the assay were isolated by standard techniques of centrifugation on Ficoll-Hypaque, dextran 70 sedimentation and hypotonic lysis. The following procedure was used. Freshly-prepared buffy coat layers from two individuals were obtained from a local blood donor center. The cells were mixed and diluted to 484 ml with phosphate buffered saline containing heparin (10 units/ml) and heat-inactivated calf serum (5%). This was divided into 20 ml aliquots and the aliquots layered on top of Ficoll-Paque (12 ml). The material was then centrifuged at 500 g for 40 minutes at room temperature. The resulting upper layer of platelets and mononuclear cells was discarded. The lower layer containing erythrocytes and neutrophils was retained. Buffer was added (1 ml per 4 ml of lower layer) and the suspension mixed. For each milliliter of this mixture, 0.33 ml of 6% Macrodex was added. After stirring, the cells were allowed to sediment for 1 hour at 37° C. The resulting erythrocyte pellet was discarded and the neutrophil enriched supernatant fluid centrifuged at 500 g for 10 minutes at 4° C. Erythrocytes still present in this cell pellet were lysed by incubating the cells with 5-8 ml ice-cold distilled water for 30-45 seconds. Subsequently, the volume was made up to 50 ml by addition of ice-cold buffer and the cells resuspended. The suspension was then centrifuged at 300 g for 10 minutes at 4° C. The cells were finally resuspended at a cell density of 2×10^7 cells/ml in the assay buffer This buffer consisted of Hanks' balanced salt solution and 0.1% ovalbumin (pH 7.3).
The amount of bound ^3 H-LTB4 was then measured and compared with the amount bound in the absence of test compound. The assay was carried out in microcentrifuge tubes by adding first 10 μl test compound dissolved in DMSO, followed by adding 20 μl ^3 H-LTB4 diluted in assay buffer, and finally adding 500 μl of the cell suspension. At the end of the 10 minutes incubation, 300 μl of a mixture of dibutyl and dinonyl phthalate (7:2) were added and the tubes centrifuged for 2 minutes in a microcentrifuge. The radioactivity bound to the cell pellet was measured by scintillation spectroscopy. Appropriate corrections for nonspecific bonding of ^3 H-LTB4 were made.

LTD4 receptors = target: T2, LTD4 receptors (Cavia porcellus, UniProt Q2NNR5); assay: Antagonism of LTD4 (guinea pig ileum and trachea, pA2); conditions: *Estimated; negative log of KB; antagonist 30 minute incubation
T2 construct: A section of terminal ileum was removed, the lumen cleaned, and the tissue divided into 2.5 cm segments; from tissue; host or cells: ileum and trachea of guinea pig (ileum: male Hartley)
T2 sequence (Q2NNR5 1-340): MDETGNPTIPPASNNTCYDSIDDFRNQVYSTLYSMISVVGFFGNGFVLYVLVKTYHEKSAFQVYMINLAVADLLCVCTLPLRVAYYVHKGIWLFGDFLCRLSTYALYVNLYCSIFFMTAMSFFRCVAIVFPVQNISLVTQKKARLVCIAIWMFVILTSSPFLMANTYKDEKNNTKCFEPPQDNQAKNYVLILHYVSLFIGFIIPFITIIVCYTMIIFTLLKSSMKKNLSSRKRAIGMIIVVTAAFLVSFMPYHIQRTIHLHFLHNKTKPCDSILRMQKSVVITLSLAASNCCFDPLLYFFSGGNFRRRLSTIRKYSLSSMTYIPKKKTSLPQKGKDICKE
Protocol: Male, Hartley guinea pigs weighing 200-450 grams were killed by decapitation. A section of terminal ileum was removed, the lumen cleaned, and the tissue divided into 2.5 cm segments. The ilea were mounted in 10 ml tissue baths containing Krebs-bicarbonate solution of the following composition in mmoles/liter: KCl, 4.6; CaCl2 ·2H2 O, 1.2; KH2 PO4, 1.2; MgSO4 ·7H2O, 1.2; NaCl, 118.2; NaHCO3, 24.8; and dextrose, 10.0. The bath fluid was maintained at 37° C. and aerated with 95 percent oxygen and 5 percent CO2 In addition, the buffer contained 1×10^-6 M atropine to reduce ileal spontaneous activity. Isometric measurements were made with a Grass FT03C. force-displacement transducer and recorded on a Grass polygraph as change in grams of force. A passive force of 0.5 g was applied to the tissues. After an appropriate equilibration period, single submaximal control responses to pure LTD4 were obtained. Following a five minute exposure of the ileum to an experimental drug, the control concentration of LTD4 was added to the tissue bath. The response of the ileum to LTD4 in the presence of the drug was compared to the response in the absence of the drug.
A more detailed analysis of LTD4 antagonism was then made. In these experiments, cumulative concentration-response curves were obtained to LTD4 in guinea pig ileum and trachea. This was followed by a 30 minute incubation with various concentrations of the experimental drug. The concentration response curve to LTD4 was then repeated in the presence of the antagonist. Only one concentration of antagonist was used on a single tissue. KB values were calculated by the method of Furchgott [Ann. N.Y. Acad. Sci., 139, 553 (1967)] using the following equation. [formula]
Dose ratio refers to the concentration of agonist required to elicit 50 percent of the maximal response ED50) in the presence of the antagonist divided by the ED50 in the absence of the antagonist.

[2] = system: LTB4 induced cell aggregation (neutrophils); assay: LTB4 Induced Aggregation Assay (neutrophils); type: cell-based, guinea pig; conditions: Cavia porcellus, Neutrophil; for inhibition at 1 µM: drug concentration 10^-6 M; for inhibition at 0.1 µM: drug concentration 10^-7 M; for inhibition at 10 µM: drug concentration 10^-5 M
Protocol: Neutrophils were elicited by intraperitoneally injecting 20 ml of Dulbecco's calcium and magnesium deficient phosphate buffered saline (PBS) containing 2% oyster glycogen into each of two male Hartley guinea pigs. Eighteen hours later, cells accumulating in the peritoneal cavity were harvested by washing the peritoneum with approximately 100 ml of PBS containing 10 units/ml of heparin. The cells were centrifuged at 200 g for 8 min. and the supernatant fluid discarded. Erythrocytes present in the pellet were lyzed by vigorous agitation of the cells in 9 ml of ice-cold distilled water for approximately 30 seconds. Physiological osmolarity was restored by adding 1.5 ml of 0.6 M KCl. Twelve milliliters of PBS were added and the resuspended cells centrifuged at 200 g for 8 min. at 4°. The pellet was resuspended in 5 ml PBS. The cell concentration was determined and additional buffer added to make the concentration […]; cells per ml.
The aggregation assay was carried out by measuring the amount of LTB4 induced cell aggregation with a Payton single channel aggregometer, model 300B. The apparatus was calibrated by placing a cuvette containing the cell suspension in it and adjusting the zero knob so that the recorder pen rested at 1 mV. A cuvette containing 20% less cells was then inserted into the aggregometer and the output knob adjusted so that the recorder pen rested at 9 mV. With these settings an 8 mV change causes the recorder pen to move 200 mm. When conducting an assay, 0.5 ml of cell suspension (5×10^6 cells) was added to each cuvette. Five microliters of a solution of test compound were then added. Most compounds were initially dissolved in DMSO at 1×10^-2 M and then diluted appropriately with PBS so that the test compound concentration was 1×10^-5 to 1×10^-7 M and the test DMSO concentration was 0.1% or less. A few of the more water insoluble compounds were first dissolved in DMSO at 1 to 6×10^-3 M and then diluted appropriately with PBS. The test concentration of DMSO was never higher than 1%. After a 2 minute equilibration period of cells and test compound, 5 μl of a solution containing CaCl2 (100 mM) and MgCl2 (50 mM) were added. One minute later, 5 μ l of PBS containing LTB4 (3×10^-7 M) were added. The change occurring in the amount of light transmitted during the subsequent minute was measured. […] During a typical experiment, several measurements of the amount of aggregation induced by LTB4 were made and an average value determined. The effect of a test compound on this aggregation was determined by the following formula: [formula]

[3] = drug concentration 10^-5 M, 0.1-0.2 nM ^3 H-LTB4, 10 minutes at 4° C
[4] = drug concentration 10^-6 M, 0.1-0.2 nM ^3 H-LTB4, 10 minutes at 4° C
[5] = 0.1-0.2 nM ^3 H-LTB4, 10 minutes at 4° C

Compound | inhibition at 10 µM [1, 3] [%] | inhibition at 1 µM [1, 4] [%] | Kb (LTD4 receptors) [nM] | inhibition at 1 µM [2] [%] | inhibition at 0.1 µM [2] [%] | LTB4 Binding Inhibition [1, 4] [percent inhibition] | inhibition at 0.1 µM [1, 5] [%] | inhibition at 10 µM [1] [%] | inhibition at 10 µM [2] [%]
CCCCCCCCCCOc1ccc(C(=O)c2cccc(C(=O)O)c2)cc1Cc1nnn[nH]1 [Example 3, 3-[4-(Decyloxy)-3-(1-tetrazol-5-ylmethyl]benzoyl]benzoic acid] | 76 | 26 | 501 | 84 | 2 | – | – | – | –
CCCCCCCCCCOc1ccc(C(=O)c2ccccc2C(=O)O)cc1CC(=O)O [Example 20, 5-(2-Carboxybenzoyl)-2-(decyloxy)benzeneacetic acid] | 71 | – | 1000 | 78 | 32 | 35 | – | – | –
CCCCCCCCCCOc1ccc(C(=O)c2cccc(C(=O)O)c2)cc1CCC(=O)O [Example 22, 5-(3-Carboxybenzoyl)-2-(decyloxy)benzenepropanoic acid] | 95 | 62 | 1950 | – | 83 | – | 17 | – | –
CCCCCCCCCCOc1ccc(C(=O)c2cccc(C(=O)O)c2)cc1CCc1nnn[nH]1 [Example 28, 3-{4-(Decyloxy)-3-[2-(1H-tetrazol-5-yl)ethyl]benzoyl}benzoic acid] | 96 | 55 | 324 | – | – | – | – | – | –
CCCCCCCCCCOc1ccc(C(=O)c2cccc(-c3nnn[nH]3)c2)cc1CCC(=O)O [Example 29, 2-(Decyloxy)-5-[3-(1H-tetrazol-5-yl)benzoyl]benzenepropanoic acid] | 98 | 71 | 955 | 72 | 14 | – | 11 | – | –
CCCCCCCCCCOc1ccc(C(=O)c2ccccc2CC(=O)O)cc1CCC(=O)O [Example 33, 5-[2-(Carboxymethyl)benzoyl]-2-(decyloxy)benzenepropanoic acid] | – | 79 | 1150 | 94 | 45 | – | 17 | 100 | –
CCCCCCCCCCOc1ccc(C(O)c2cccc(C(=O)O)c2)cc1CC(=O)O (stereo not drawn) [Example 45, 5-[(3--Carboxyphenyl)hydroxymethyl]-2-(decyloxy)benzeneacetic acid] | 78 | 19 | 2000 | 11 | – | – | – | – | 77
CCCCCCOc1ccc(C(O)c2cccc(C(=O)O)c2)cc1CC(=O)O (stereo not drawn) [Example 48, 5-[(3--Carboxyphenyl)hydroxymethyl]-2-(hexyloxy)benzeneacetic acid] | 10 | -10 | 7940 | – | – | – | – | – | –
CCCCCCCCCCOc1ccc(C(=NO)c2cccc(C(=O)O)c2)cc1CCC(=O)O [Example 52, 5-[(3-Carboxyphenyl)(hydroxyimino)methyl]-2-(decyloxy)benzenepropanoic acid] | – | 61 | 661 | 89 | 38 | – | 17 | 92 | 94
CCCCCCCCCCOc1ccc(Oc2cccc(C(=O)O)c2)cc1CCC(=O)O [Example 56, 5-(3-Carboxyphenoxy)-2-(decyloxy)benzenepropanoic acid] | 88 | 41 | 479 | – | – | – | – | – | –

From patent US5171882A, “Leukotriene antagonists” (Eli Lilly and Company, priority 1990, dated 1992)
